According to patent US9458165B2, “DOT1L inhibitors” (Dana-Farber Cancer Institute, Inc., priority 2014, dated 2016):

Test: Pharmacokinetic study, intravenous 5 mg/kg
Format: in vivo
Settings: CD1 mice, 5 mg/kg, FIG. 8B
Experimental: Pharmacokinetic studies of the compound of Example 1 (i.e. CC-006) and previously disclosed compounds EPZ004777, CC001 (see U.S. 2014/0051654) and FED1 were performed in CD1 mice following intravenous administration, as detailed in Table 1.
Mean plasma concentration-time profiles representative of the compound of Example 1 (i.e. CC-006) after intravenous dosing (5 mg kg^−1) are shown in FIG. 8A (data represent the mean and s.d. (n=3)). […] From the pharmacokinetic properties, the compound of Example 1 (i.e. CC-006) has potential for use in treatment using intravenous administration due to its long half-life, as compared to subcutaneous administration.

SMILES: CC(C)N(C[C@H]1C[C@@H](n2ccc3c(N)ncnc32)[C@H](O)[C@@H]1O)[C@H]1C[C@@H](CCc2nc3cc(C(C)(C)C)ccc3[nH]2)C1 [CC001, reference compound]
- half-life (T1/2): longest half-life of the compounds tested
